In paper PMC11897524 (Frontiers in Pharmacology, 2025):

Tests used:
Test in all cases: SelectScreen Z′-LYTE kinase assay
Format in all cases: biochemical
JAK1 = JAK1 (Homo sapiens, UniProt P23458)
Experimental: (§1) The kinase selectivity profile of BST-4 was performed by the SelectScreen kinase profiling service (Thermo Fisher Scientific). Kinase selectivity assay was performed using Z′-LYTE ™ screening protocol kit. Briefly, the test compounds were screened in 1% DMSO (final). For 10-point titrations, perform a 3-fold dilution starting at a starting concentration of 50 µM. Then 2.5 µL 4× test compound, 2.4 µL kinase buffer, 5 µL 2× kinase mixture and 2.5 µL 4× ATP solution was added in black 384-well plate. After shaking for 30 s, the plates were incubated for 60 min at room temperature. Add developing reagent solution and shake the plate for 30 s, then incubate for 1 h at room temperature. The Fluorescence intensity per well was read using a fluorescence plate reader. SelectScreen® Kinase Profiling Service used XLfit from IDBS. The dose response curve was curve fit to model number 205 (sigmoidal dose-response model) and inhibition rates were calculated. 50% inhibition was used as a activity threshold. IC50 values were calculated based on curve fitting.

EPHA6 = EPHA6 (Homo sapiens, UniProt Q9UF33)
Experimental: as §1

EPHA7 = EPHA7 (Homo sapiens, UniProt Q15375)
Experimental: as §1

CSF1R = CSF1R (Homo sapiens, UniProt P07333)
Experimental: as §1

EPHB1 = EPHB1 (Homo sapiens, UniProt P54762)
Experimental: as §1

RET = RET (Homo sapiens, UniProt P07949)
Experimental: as §1

TEK = TEK (Homo sapiens, UniProt Q02763)
Experimental: as §1

FYN = FYN (Homo sapiens, UniProt P06241)
Experimental: as §1

NTRK3 = NTRK3 (Homo sapiens, UniProt Q16288)
Experimental: as §1

DDR2 = DDR2 (Homo sapiens, UniProt Q16832)
Experimental: as §1

FES = FES (Homo sapiens, UniProt P07332)
Experimental: as §1

FGFR2 = FGFR2 (Homo sapiens, UniProt P21802)
Experimental: as §1

EPHA5 = EPHA5 (Homo sapiens, UniProt P54756)
Experimental: as §1

FER = FER (Homo sapiens, UniProt P16591)
Experimental: as §1

YES1 = YES1 (Homo sapiens, UniProt P07947)
Experimental: as §1

EPHA8 = EPHA8 (Homo sapiens, UniProt P29322)
Experimental: as §1

MUSK = MUSK (Homo sapiens, UniProt O15146)
Experimental: as §1

INSRR = INSRR (Homo sapiens, UniProt P14616)
Experimental: as §1

PTK2 = PTK2 (Homo sapiens, UniProt Q05397)
Experimental: as §1

ALK = ALK (Homo sapiens, UniProt Q9UM73)
Experimental: as §1

HCK = HCK (Homo sapiens, UniProt P08631)
Experimental: as §1

FLT4 = FLT4 (Homo sapiens, UniProt P35916)
Experimental: as §1

ABL2 = ABL2 (Homo sapiens, UniProt P42684)
Experimental: as §1

INSR = INSR (Homo sapiens, UniProt P06213)
Experimental: as §1

EPHB2 = EPHB2 (Homo sapiens, UniProt P29323)
Experimental: as §1

JAK3 = JAK3 (Homo sapiens, UniProt P52333)
Experimental: as §1

ITK = ITK (Homo sapiens, UniProt Q08881)
Experimental: as §1

TEC = TEC (Homo sapiens, UniProt P42680)
Experimental: as §1

LCK = LCK (Homo sapiens, UniProt P06239)
Experimental: as §1

JAK2 = JAK2 (Homo sapiens, UniProt O60674)
Experimental: as §1

LTK = LTK (Homo sapiens, UniProt P29376)
Experimental: as §1

LYN = LYN (Homo sapiens, UniProt P07948)
Experimental: as §1

LCK, sequence (P06239 whole entry): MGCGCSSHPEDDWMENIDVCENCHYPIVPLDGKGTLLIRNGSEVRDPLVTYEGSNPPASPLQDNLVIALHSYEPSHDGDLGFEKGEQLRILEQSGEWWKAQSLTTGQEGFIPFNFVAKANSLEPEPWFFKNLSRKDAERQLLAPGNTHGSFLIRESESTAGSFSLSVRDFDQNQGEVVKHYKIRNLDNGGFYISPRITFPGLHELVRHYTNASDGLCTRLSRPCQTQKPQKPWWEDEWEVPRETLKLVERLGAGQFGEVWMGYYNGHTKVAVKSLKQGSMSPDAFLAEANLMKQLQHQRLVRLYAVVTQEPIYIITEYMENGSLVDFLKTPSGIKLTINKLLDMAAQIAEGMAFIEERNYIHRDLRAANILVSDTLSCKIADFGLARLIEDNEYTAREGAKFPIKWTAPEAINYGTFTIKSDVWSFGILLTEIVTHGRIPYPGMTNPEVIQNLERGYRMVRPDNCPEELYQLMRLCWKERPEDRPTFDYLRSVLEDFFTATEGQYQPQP
FER, sequence (P16591 whole entry): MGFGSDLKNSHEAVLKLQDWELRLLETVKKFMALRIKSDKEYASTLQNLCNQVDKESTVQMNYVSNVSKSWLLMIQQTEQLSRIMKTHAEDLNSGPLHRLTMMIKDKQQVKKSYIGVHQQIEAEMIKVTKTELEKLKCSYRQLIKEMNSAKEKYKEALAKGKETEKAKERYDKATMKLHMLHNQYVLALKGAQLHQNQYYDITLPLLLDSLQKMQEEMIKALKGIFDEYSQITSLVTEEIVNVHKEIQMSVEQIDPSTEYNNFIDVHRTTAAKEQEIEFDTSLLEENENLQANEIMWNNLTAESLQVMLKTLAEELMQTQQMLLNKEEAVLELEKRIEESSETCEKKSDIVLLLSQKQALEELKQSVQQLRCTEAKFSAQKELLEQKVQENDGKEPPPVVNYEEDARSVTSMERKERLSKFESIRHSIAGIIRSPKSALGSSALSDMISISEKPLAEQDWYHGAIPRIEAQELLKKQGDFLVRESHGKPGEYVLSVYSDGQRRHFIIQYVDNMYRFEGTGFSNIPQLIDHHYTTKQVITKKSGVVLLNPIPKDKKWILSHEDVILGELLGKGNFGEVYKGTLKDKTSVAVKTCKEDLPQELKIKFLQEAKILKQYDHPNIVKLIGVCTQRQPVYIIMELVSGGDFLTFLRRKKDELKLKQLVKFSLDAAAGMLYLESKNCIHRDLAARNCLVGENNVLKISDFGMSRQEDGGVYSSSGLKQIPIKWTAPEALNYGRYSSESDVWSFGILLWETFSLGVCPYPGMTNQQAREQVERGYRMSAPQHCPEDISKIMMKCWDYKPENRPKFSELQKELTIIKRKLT
CSF1R, sequence (P07333 20-972): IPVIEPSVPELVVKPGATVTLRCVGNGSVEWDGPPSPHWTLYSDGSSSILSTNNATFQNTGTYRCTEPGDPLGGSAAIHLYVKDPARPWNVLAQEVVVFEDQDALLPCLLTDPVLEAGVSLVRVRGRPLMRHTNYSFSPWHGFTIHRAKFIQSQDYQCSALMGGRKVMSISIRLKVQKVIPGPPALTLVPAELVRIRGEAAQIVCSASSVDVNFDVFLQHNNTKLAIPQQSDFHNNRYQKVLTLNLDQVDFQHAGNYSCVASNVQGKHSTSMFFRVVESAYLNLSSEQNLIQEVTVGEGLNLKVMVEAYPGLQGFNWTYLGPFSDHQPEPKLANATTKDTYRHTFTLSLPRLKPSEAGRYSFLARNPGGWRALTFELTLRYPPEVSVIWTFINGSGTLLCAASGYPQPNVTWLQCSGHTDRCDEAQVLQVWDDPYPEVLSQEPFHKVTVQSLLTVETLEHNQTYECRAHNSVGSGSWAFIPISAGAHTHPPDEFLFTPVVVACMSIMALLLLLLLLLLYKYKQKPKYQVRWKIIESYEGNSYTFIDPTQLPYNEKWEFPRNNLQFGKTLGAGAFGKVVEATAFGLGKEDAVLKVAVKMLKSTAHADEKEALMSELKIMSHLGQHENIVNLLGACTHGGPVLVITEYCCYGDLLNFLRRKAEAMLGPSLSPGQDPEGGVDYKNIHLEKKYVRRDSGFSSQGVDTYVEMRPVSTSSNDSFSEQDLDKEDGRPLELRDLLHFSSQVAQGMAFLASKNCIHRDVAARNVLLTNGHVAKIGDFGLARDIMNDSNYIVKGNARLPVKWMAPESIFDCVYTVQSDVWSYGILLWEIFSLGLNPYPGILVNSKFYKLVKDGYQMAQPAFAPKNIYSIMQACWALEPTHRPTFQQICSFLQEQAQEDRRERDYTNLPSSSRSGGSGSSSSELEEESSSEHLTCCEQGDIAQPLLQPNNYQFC
TEK, sequence (Q02763 23-1124): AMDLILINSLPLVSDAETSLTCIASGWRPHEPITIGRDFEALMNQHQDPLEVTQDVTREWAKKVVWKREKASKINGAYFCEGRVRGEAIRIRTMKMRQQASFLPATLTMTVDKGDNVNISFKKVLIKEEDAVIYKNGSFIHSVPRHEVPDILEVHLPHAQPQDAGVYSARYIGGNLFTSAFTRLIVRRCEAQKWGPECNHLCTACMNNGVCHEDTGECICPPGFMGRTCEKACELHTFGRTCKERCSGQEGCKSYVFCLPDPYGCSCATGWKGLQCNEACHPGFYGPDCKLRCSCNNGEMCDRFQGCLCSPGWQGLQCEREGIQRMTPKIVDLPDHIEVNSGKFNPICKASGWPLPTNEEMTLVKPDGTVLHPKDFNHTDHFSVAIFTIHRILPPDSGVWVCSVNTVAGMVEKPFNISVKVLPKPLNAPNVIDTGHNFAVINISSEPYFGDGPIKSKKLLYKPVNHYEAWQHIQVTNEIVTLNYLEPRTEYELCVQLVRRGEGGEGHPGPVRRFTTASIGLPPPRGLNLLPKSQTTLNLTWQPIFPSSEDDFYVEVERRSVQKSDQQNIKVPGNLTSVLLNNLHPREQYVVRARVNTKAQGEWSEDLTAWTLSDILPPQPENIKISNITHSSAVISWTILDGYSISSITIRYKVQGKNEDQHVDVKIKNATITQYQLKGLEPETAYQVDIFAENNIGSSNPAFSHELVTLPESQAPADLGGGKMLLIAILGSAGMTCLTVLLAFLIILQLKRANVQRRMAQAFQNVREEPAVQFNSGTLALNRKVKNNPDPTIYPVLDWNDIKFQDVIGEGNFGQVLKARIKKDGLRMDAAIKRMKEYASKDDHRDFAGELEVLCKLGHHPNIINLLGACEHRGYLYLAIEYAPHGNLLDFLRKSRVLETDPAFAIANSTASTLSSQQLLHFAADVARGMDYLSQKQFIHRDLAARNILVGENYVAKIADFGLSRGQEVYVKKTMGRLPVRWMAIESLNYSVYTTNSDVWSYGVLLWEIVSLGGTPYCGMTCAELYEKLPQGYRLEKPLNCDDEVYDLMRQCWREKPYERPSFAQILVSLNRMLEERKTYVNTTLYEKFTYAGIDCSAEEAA
DDR2, sequence (Q16832 22-855): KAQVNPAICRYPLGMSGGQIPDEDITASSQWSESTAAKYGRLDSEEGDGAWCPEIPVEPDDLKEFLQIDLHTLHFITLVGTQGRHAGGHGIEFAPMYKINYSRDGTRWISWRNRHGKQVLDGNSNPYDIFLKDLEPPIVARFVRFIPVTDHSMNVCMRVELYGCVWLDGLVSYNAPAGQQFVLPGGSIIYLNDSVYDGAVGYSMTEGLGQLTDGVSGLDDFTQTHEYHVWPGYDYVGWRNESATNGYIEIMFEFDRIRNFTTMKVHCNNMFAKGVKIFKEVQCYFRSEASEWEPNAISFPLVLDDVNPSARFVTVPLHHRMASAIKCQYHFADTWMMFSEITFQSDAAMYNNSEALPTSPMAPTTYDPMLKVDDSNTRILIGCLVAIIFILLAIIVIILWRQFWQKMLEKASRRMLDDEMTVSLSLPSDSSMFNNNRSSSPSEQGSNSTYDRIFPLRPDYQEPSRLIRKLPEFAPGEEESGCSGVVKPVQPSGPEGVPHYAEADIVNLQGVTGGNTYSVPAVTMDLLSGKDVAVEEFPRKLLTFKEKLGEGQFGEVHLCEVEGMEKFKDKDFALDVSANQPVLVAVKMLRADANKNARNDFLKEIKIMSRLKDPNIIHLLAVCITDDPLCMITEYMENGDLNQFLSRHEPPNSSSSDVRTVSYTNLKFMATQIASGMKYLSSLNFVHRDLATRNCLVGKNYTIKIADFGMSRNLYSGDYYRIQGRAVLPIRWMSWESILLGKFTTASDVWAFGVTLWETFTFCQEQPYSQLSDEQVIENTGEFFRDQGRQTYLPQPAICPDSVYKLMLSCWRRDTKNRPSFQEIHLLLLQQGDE
ITK, sequence (Q08881 whole entry): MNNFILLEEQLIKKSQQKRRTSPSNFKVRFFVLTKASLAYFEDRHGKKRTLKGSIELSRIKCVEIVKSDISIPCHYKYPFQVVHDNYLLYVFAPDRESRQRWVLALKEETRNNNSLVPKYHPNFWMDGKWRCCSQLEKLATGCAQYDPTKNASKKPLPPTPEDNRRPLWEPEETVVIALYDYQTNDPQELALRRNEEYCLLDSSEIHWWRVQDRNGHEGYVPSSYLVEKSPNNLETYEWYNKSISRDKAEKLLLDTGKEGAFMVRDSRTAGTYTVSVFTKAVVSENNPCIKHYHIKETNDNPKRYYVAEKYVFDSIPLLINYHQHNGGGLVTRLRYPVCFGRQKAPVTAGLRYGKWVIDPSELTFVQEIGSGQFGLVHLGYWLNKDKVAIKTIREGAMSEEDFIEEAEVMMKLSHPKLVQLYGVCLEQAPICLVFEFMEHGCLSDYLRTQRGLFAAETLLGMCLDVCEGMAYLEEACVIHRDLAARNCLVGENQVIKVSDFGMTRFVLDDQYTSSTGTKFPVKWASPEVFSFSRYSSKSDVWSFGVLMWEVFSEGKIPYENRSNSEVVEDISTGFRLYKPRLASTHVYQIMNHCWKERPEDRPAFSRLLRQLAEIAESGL

IC50 (JAK1): > 10 µM
inhibition at 1 µM (JAK1): 1.21%
IC50 (EPHA6): > 10 µM
inhibition at 1 µM (EPHA6): 0.26%
IC50 (EPHA7): > 10 µM
inhibition at 1 µM (EPHA7): 0.91%
IC50 (CSF1R): > 10 µM
inhibition at 1 µM (CSF1R): 2.02%
IC50 (EPHB1): > 10 µM
inhibition at 1 µM (EPHB1): 3.35%
IC50 (RET): > 10 µM
inhibition at 1 µM (RET): 0.41%
IC50 (TEK): > 10 µM
inhibition at 1 µM (TEK): 4.16%
IC50 (FYN): > 10 µM
inhibition at 1 µM (FYN): 2.03%
IC50 (NTRK3): > 10 µM
inhibition at 1 µM (NTRK3): 4.75%
IC50 (DDR2): > 10 µM
inhibition at 1 µM (DDR2): 0.7%
IC50 (FES): > 10 µM
inhibition at 1 µM (FES): 0.05%
IC50 (FGFR2): > 10 µM
inhibition at 1 µM (FGFR2): 0.45%
IC50 (EPHA5): > 10 µM
inhibition at 1 µM (EPHA5): 3.17%
IC50 (FER): > 10 µM
inhibition at 1 µM (FER): 0.03%
IC50 (YES1): > 10 µM
inhibition at 1 µM (YES1): 1.22%
IC50 (EPHA8): > 10 µM
inhibition at 1 µM (EPHA8): 0.72%
IC50 (MUSK): > 10 µM
inhibition at 1 µM (MUSK): 1.26%
IC50 (INSRR): > 10 µM
inhibition at 1 µM (INSRR): 0.62%
IC50 (PTK2): > 10 µM
inhibition at 1 µM (PTK2): 1.48%
IC50 (ALK): > 10 µM
inhibition at 1 µM (ALK): 0.72%
IC50 (HCK): > 10 µM
inhibition at 1 µM (HCK): 0.86%
IC50 (FLT4): > 10 µM
inhibition at 1 µM (FLT4): 1.82%
IC50 (ABL2): > 10 µM
inhibition at 1 µM (ABL2): 0.44%
IC50 (INSR): > 10 µM
inhibition at 1 µM (INSR): 2.53%
IC50 (EPHB2): > 10 µM
inhibition at 1 µM (EPHB2): 0.51%
IC50 (JAK3): > 10 µM
inhibition at 1 µM (JAK3): 0.39%
IC50 (ITK): > 10 µM
inhibition at 1 µM (ITK): 0.75%
IC50 (TEC): > 10 µM
inhibition at 1 µM (TEC): 0.67%
IC50 (LCK): > 10 µM
inhibition at 1 µM (LCK): 0.77%
IC50 (JAK2): > 10 µM
inhibition at 1 µM (JAK2): 0.18%
IC50 (LTK): > 10 µM
inhibition at 1 µM (LTK): 0.21%
IC50 (LYN): > 10 µM
inhibition at 1 µM (LYN): 1.96%
SMILES: CCS(=O)(=O)Cc1cnc(Oc2c(F)cc(F)cc2OCCCCOc2ccc(/C=C/c3cc(OC)cc(OC)c3)cc2)c(-c2cc(C)c3c(=O)[nH]ccn23)c1 [BST-4]
